Tests used:
[1] = tested on: philtrum skin; experiment: Cooling duration bioassay on philtrum skin; format: in vivo, human
Source text: (§1) FIG. 1. Comparison of cooling duration of various p-menthanecarboxamide analogs on philtrum skin versus ocular margins. The philtrum skin is keratinized, but the ocular margins are not. The test substances numbered 1 to 11 are: D-Ala-OiPr, Gly-OiPr, D-Ala-OEt, D-Ala-OMe, D-Ala-GlynPr, GlynPr, D-Ala-OnBu, GlynBu, GlyOEt, L-Ala-OEt, and N-Me-D-Ala-OEt, respectively. Two outliers (1 and 2) were identified as preferred embodiments because they preferentially cool the ocular margins. The nasal cavity surfaces like the ocular margins are not keratinized.
(§2) Cooling agents have been assayed in various ways depending on intended use. For example, for the skin the test substance can be applied on philtrum skin, using descriptions of coolness on a scale of 0 to 3. For the ocular surface, the active ingredient can be applied to the closed eyelids using a wipe. In the oral cavity, drug applications are on the posterior dorsal surface of the tongue. For the oropharyngeal surface, the cooling agent may be applied as an orally disintegrating tablet. The ability of a cooling agent to antagonize a noxious stimuli may also be tested, using nociception from citric acid or chili pepper sauce. Responses are usually measured using a Visual Analog Scale with a numerical rating. For nasal responses, however, such procedures have not been standardized. Some endpoints to consider are open and comfortable breathing, the presence or absence of sniffles, and the secretion of phlegm.

[2] = molecular target: T1, hTRPM8 channel (Homo sapiens, UniProt Q7Z2W7); experiment: TRPM8 receptor assay, calcium entry (Fluo-8, FLIPR) in transfected CHO cells; format: cell-based; conditions: for EC50: CHO cells transfected with hTRPM8, Fluo-8 calcium kit, FLIPR; for Potency Relative to L-menthol: ratio of TRPM8 EC50 values, menthol = 1.0
T1 construct: host or cells: CHO cells
Source text: FIG. 4. Agonist activities of TRPM8 analogs. […] The relative fluorescence (RF) unit on the ordinate represents calcium entry into transfected cells. […] The structures of these compounds are in Table 4.
The applicant has synthesized and examined a series of p-menthanecarboxamides conjugated to amino acid esters. […] This class of molecules is called N-alkylcarbonyl-amino acid esters. GlyOiPr is a p-menthanecarboxamide conjugate of glycine isopropyl (iPr) ester. It is similar in structure to WS-5, a cooling agent used as a food additive. WS-5 is the p-menthane-glycine ethyl (Et) ester, or GlyOEt. […] These in vitro effects were measured in CHO cells transfected with the hTRPM8 channel. Receptor activity was quantified using a Fluo-8 calcium kit and a Fluorescence Imaging Plate Reader ([…]™).

[3] = tested on: nasal cavity; experiment: Nebulizer screening of TRPM8 agonists for sensations in the nasal cavity; format: in vivo, human; conditions: NasoNeb nebulizer; for Sensory effects after delivery into the nasal cavity: 3 to 5 sec per nostril
Experimental: Formulations for nebulization with NasoNeb® used a standard recipe of (Table 8): 1% of the active ingredient (1 to 10 mg/mL), 2% Tween 80 (Polysorbate 80), 1 to 5% ethanol, and made up to 100% with water. The mixture is centrifuged in a FlackTek, Inc., Speedmixer for at least 10 min at 3000 rpm. The Speedmixer spins the sample in 3 dimensions. The result is a white homogeneous liquid suspension with some of the solids now dissolved. For dosing, ˜2 to 3 mL is loaded into the canister of the nebulizer. The nebulizer nozzle tip is placed in the nostril and activated by pressing a button for 3 to 5 sec using a clock timer. […] For D-Ala-OiPr a 5-sec activation will deliver 2*0.73 mL*2 mg/ml, or a total dose of 3 mg per nose. The nasal cavity is relatively tolerant to exogenous agents with irritant properties, as many rinses are used for rhinitis and sinusitis. For some p-menthanecarboxamide analogs, a 2% (20 mg/mL) solution is possible and contemplated. An ideal agent reproduces a comfortable cooling or sensations of negative heat flux in the nasal cavity. […] Heat flux refers to the rate of heat transfer per unit area. The sinonasal cavity mucosa differs from philtrum skin and ocular margins in histology, so the choice of the right molecule must be made by experiment. The TRPM8 agonists were chosen for screening using a nebulizer for delivery. The NasoNeb system is powerful and effective for the OMC (FIG. 3). The delivery time per nostril in three to five seconds. […] These parameters were estimated in the initial trials: • Onset and offset of cooling sensations in the nasal cavity. • The intensity and quality of the cooling sensations in the nasal cavity. • Presence of effects such as sneezing or cough after dosing. • Degree of nasal stuffiness on a scale of 0 to 5. • Degree of rhinorrhea and phlegm in nasal secretions. • Questions regarding comfort and sleep at night.

[4] = tested on: ocular margins; experiment: Cooling duration bioassay on eyelids/ocular margins; format: in vivo, human; conditions: for Eyelids/Ocular Surface: Table 6, cooling duration, non-keratinized
Source text: as §1, §2

[5] = tested on: oral cavity; experiment: Chili-pepper sauce test (oral cavity); format: in vivo, human; design: scale not given here; conditions: Table 6; grades 0, +, ++ without key
Source text: as §2

[6] = Table 6, cooling duration, keratinized skin

T1 sequence (Q7Z2W7 whole entry): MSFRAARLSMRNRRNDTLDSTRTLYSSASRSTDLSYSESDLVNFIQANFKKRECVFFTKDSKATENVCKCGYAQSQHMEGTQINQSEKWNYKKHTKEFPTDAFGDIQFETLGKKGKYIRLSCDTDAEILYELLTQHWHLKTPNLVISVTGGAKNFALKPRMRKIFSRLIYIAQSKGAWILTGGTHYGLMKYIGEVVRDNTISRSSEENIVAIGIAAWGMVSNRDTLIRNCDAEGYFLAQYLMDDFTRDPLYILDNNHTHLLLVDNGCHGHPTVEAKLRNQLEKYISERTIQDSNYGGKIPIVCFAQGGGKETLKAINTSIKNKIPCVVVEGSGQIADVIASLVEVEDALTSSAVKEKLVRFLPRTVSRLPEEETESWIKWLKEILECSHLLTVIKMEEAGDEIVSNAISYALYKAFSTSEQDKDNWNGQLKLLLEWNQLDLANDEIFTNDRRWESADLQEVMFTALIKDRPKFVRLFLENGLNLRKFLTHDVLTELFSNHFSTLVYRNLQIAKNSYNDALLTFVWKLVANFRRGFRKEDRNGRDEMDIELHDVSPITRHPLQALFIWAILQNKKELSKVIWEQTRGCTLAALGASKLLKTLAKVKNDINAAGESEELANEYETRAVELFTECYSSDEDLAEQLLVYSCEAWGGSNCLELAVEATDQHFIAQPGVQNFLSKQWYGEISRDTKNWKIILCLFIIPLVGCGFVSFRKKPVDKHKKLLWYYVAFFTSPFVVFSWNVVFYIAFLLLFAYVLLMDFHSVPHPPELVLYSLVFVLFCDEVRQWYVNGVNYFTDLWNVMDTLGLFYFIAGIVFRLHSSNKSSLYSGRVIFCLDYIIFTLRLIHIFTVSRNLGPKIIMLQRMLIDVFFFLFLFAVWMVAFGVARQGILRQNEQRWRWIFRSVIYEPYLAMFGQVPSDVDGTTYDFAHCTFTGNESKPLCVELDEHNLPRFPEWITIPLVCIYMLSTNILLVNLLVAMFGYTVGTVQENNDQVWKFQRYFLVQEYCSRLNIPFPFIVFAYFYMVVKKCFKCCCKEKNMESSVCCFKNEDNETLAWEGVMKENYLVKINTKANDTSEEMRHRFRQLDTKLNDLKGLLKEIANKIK

Structure (SMILES) | Philtrum Skin [1, 6] [min] | EC50 [2] [nM] | Potency Relative to L-menthol [2] | Cooling duration in the nasal cavity [3] [min] | Sensory effects after delivery into the nasal cavity [3] | Eyelids/Ocular Surface [4] [min] | Chili-Pepper Sauce Test [5] | Philtrum Skin ([1]; Table 7, Gly esters) [min] | Ocular Surface ([4]; Table 7, Gly esters) [min]
CCOC(=O)[C@@H](C)NC(=O)[C@@H]1C[C@H](C)CC[C@H]1C(C)C [D-Ala-OEt, (R)-2-[((1R,2S,5R)-2-isopropyl-5-methyl-cyclohexanecarbonyl)-amino]-propionic acid ethyl ester] | 103 | 270 | 14.0 | ~15 | Bitter taste, causes coughing | 180 | – | – | –
COC(=O)C(C)NC(=O)[C@@H]1C[C@H](C)CC[C@H]1C(C)C (stereo partly drawn) [D-Ala-OMe] | 77 | 590 | 6.4 | – | – | 120 | – | – | –
CCCCOC(=O)C(C)NC(=O)[C@@H]1C[C@H](C)CC[C@H]1C(C)C (stereo partly drawn) [D-Ala-OnBu] | 80 | 1030 | 3.7 | – | – | 40 | 0 | – | –
CC(C)[C@@H]1CC[C@@H](C)C[C@H]1C(=O)NCCc1ccccn1 [FEMA 4549, (1R,2S,5R)-N-(2-(pyridin-2-yl)ethyl)-3-p-menthanecarboxamide, reference compound] | – | – | – | – | Although potent on TRPM8 receptor, slow onset and absence of refreshing cooling. | – | – | – | –
COC(=O)CNC(=O)[C@@H]1C[C@H](C)CC[C@H]1C(C)C [GlyOMe] | – | 500 | 7.6 | – | – | – | – | 10 | 5
CCOC(=O)[C@H](C)NC(=O)[C@@H]1C[C@H](C)CC[C@H]1C(C)C [L-Ala-OEt, (S)-2-[((1R,2S,5R)-2-isopropyl-5-methyl-cyclohexanecarbonyl)-amino]-propionic acid ethyl ester] | 34 | 24000 | 0.2 | – | Very little cooling, low potency on TRPM8, good only as negative control. | 0 | 0 | – | –
CCOC(=O)C(C)NC(=O)[C@@H]1C[C@H](C)CC[C@H]1C(C)C (stereo partly drawn) [L-Ala-OiPr] | 27 | – | – | – | – | 15 | 0 | – | –
CCOC(=O)C(C)NC(=O)[C@@H]1C[C@H](C)CC[C@H]1C(C)C (stereo partly drawn) [L-Ala-OnBu] | 0 | – | – | – | – | 0 | 0 | – | –
CCOC(=O)C(C)NC(=O)[C@@H]1C[C@H](C)CC[C@H]1C(C)C (stereo partly drawn) [L-Ala-OnPr] | 22 | – | – | – | – | 10 | 0 | – | –
O=C1NC(c2cccc([N+](=O)[O-])c2)=CCN1c1ccccc1O [icilin, 1-[2-hydroxy]-4-[3-nitrophenyl]-1,2,3,6-tetrahydropyrimidine-2-one, reference compound] | – | – | – | – | Difficult to form a homogeneous suspension, causes systemic cooling at higher doses | – | – | – | –

From patent US20250288583A1, “Treatment of Mucus Hypersecretion” (priority 2024, published 2025)
